# Patent publication US20220370416A1, “COMPOUNDS AND METHODS FOR TARGETED DEGRADATION OF KRAS” (Arvinas Operations, Inc., priority 2020, published 2022)
# Legend:
# KRAS^G12C [1] = molecular target: T1, KRAS^G12C (Homo sapiens, UniProt P01116, G12C); test: KRAS^G12C degradation in homozygous MIA PaCa-2 cells; type: cell-based; set-up: endogenous in cells; host or cells: MIA PaCa-2; conditions: homozygous MIA PaCa-2 cells (FIG. 4B)
# KRAS^G12C [2] = molecular target: T1, KRAS^G12C; test: KRAS^G12C degradation by immunoblot in MIA PaCa-2 cells; type: cell-based; set-up: MRTX849-VHL bifunctional compounds engage and degrade endogenous KRAS^G12C in NCI-H2030 cells; endogenous in cells; host or cells: NCI-H2030, NCI-H358, MIA PaCa-2, SW1573, NCI-H23; conditions: for KRAS, two-way ANOVA significance vs DMSO: FIG. 10A
# Protocol: NCI-H2030 (CRL-5914), MIA PaCa-2 (CRL-1420), NCI-H23 (CRL-5800), NCI-H358 (CRL-5807), and HCT-116 (CCL-247) cells were obtained from ATCC, expanded immediately, and frozen down. Vials were thawed and used within 20 passages. SW1573 cells were a gift from Arvinas and were handled in the same manner. NCI-H2030, NCI-H23, and NCI-H358 were cultured in RPMI (ATCC30-2001) supplemented with 10% FBS (Biological Industries; cat. no. S1480) and 1% Penicillin-Streptomycin (ThermoFisher; cat. no. 15140122). HCT-116 cells were maintained in high glucose DMEM (ThermoFisher; cat. no. 11965084) supplemented as above. MIA PaCa-2 cells were cultured in high glucose DMEM supplemented with 10% FBS, 2.5% horse serum (ThermoFisher; cat. no. 26050-088; lot 2109875), and 1% Penicillin-Streptomycin. SW1573 cells were maintained in DMEM/F12 Nutrient Mix with GlutaMAX supplement (ThermoFisher; cat. no. 10565018) with 10% FBS and 1% Penicillin-Streptomycin added. DPBS (ThermoFisher; cat. no. 14190250) was used to wash cells and 0.25% Trypsin-EDTA (ThermoFisher; cat. no. […]) was used to detach cells for passaging. […] The VHL ligand was generously provided by Arvinas.
# Between 2.5×10^5 and 6.0×10^5 cells were seeded into 6-well plates (Corning; cat. no. 353046). The next day, media was removed and cells were treated with 2.5 μM LC-2 for 1, 2, 4, 8, 12, or 24 hours. […] For 24-hour time course experiments, cells were treated at the indicated times and concurrently lysed in RIPA buffer supplemented as described previously. For longer time course experiments and time courses in which cells were treated with LC-2 or LC-2 Epimer, cells were concurrently treated with either compound, then lysed by scraping in RIPA buffer at the indicated time points.
# Cell lysates were clarified at 21000×g for 15 mins at 4° C. Protein levels were quantified using a 50:1 mixture of bicinchoninic acid solution (Millipore Sigma; cat. no. B9643) and 4% (w/v) copper(II) sulfate solution (Millipore Sigma; cat. no. C2284) incubated at 37° C. for 30 mins. Absorbance values at 560 nm were read on an EnVision 2101 Multilabel Reader (PerkinElmer). Proteins were separated using 26 well Criterion TGX precast 4-15% (cat. no. 5671085) or 8-16% (cat. no. 5671105) gradient midi gels. After separation, proteins were transferred to nitrocellulose or PVDF membranes at 76 V for 2 hours at 4° C. Blots were then blocked in 5% milk in tris-buffered saline with Tween-20 (TBST; 20 mM Tris, 150 mM NaCl, 0.02% Tween-20). After blocking, blots were incubated in primary antibody overnight (12-18 hours) at 4° C. or for 2 hours at room temperature with mild agitation at the manufacturer's indicated dilution in either 5% milk or 5% BSA in TBST. Blots were then washed thrice with TBST for 5 mins at room temperature. After washing, blots were incubated with 1:5,000-1:10,000 of donkey anti-rabbit (GE Life Sciences; NA934) or sheep anti-mouse (GE Life Sciences; NA931) secondary antibody diluted in 5% milk for 1 hour at room temperature with mild agitation. Blots were again washed thrice with TBST for 5 mins. Chemiluminescent signal was generated using Amersham ECL Prime Western Blotting Detection Reagant (GE Life Sciences; cat. no. RPN2232) or SuperSignal West Femto Maximum Sensitivity Substrate (ThermoFisher; cat. no. 34095). Images were obtained using a Bio-Rad ChemiDoc Imager. Fluorescent α-tubulin images were collected with the Bio-Rad ChemiDoc Imager using an Alexa488 filter. The primary antibodies used in this work include: KRAS (LSBio; clone 2C1; cat. no. LS-C175665), p-p42/44 MAPK (phospho T202/Y204) (pErk; Cell Signaling Technologies (CST); cat. no. 4370S or 9106S), p42/44 MAPK (Erk1/2; CST; cat. no. 4695S), alpha-tubulin (CST; 2144S), and alpha-tubulin w/AlexaFluor488 (Millipore; cat. no. 16-232).
# Band intensities were quantified using BioRad's Image Lab Software.
# Protocol for pErk: The ability of LC-2 to modulate Erk signaling was investigated in NCI-H2030 and NCI-H23 cells during a 24 hour dose response.
# Signaling kinetics were monitored during a 24 hour time course in MIA PaCa2, NCI-H23, and SW1573 cells treated with 2.5 μM LC-2.
# NCI-H2030 (CRL-5914), MIA PaCa-2 (CRL-1420), NCI-H23 (CRL-5800), NCI-H358 (CRL-5807), and HCT-116 (CCL-247) cells were obtained from ATCC, expanded immediately, and frozen down. Vials were thawed and used within 20 passages. SW1573 cells were a gift from Arvinas and were handled in the same manner. NCI-H2030, NCI-H23, and NCI-H358 were cultured in RPMI (ATCC30-2001) supplemented with 10% FBS (Biological Industries; cat. no. S1480) and 1% Penicillin-Streptomycin (ThermoFisher; cat. no. 15140122). HCT-116 cells were maintained in high glucose DMEM (ThermoFisher; cat. no. 11965084) supplemented as above. MIA PaCa-2 cells were cultured in high glucose DMEM supplemented with 10% FBS, 2.5% horse serum (ThermoFisher; cat. no. 26050-088; lot 2109875), and 1% Penicillin-Streptomycin. SW1573 cells were maintained in DMEM/F12 Nutrient Mix with GlutaMAX supplement (ThermoFisher; cat. no. 10565018) with 10% FBS and 1% Penicillin-Streptomycin added. DPBS (ThermoFisher; cat. no. 14190250) was used to wash cells and 0.25% Trypsin-EDTA (ThermoFisher; cat. no. 252000-056) was used to detach cells for passaging. […] The VHL ligand was generously provided by Arvinas.
# Cell lysates were clarified at 21000×g for 15 mins at 4° C. Protein levels were quantified using a 50:1 mixture of bicinchoninic acid solution (Millipore Sigma; cat. no. B9643) and 4% (w/v) copper(II) sulfate solution (Millipore Sigma; cat. no. C2284) incubated at 37° C. for 30 mins. Absorbance values at 560 nm were read on an EnVision 2101 Multilabel Reader (PerkinElmer). […]
smiles,measurement,setting,value
"C=C(F)C(=O)N1CCN(c2nc(OC[C@@H]3CCCN3CCCOCCC(=O)N[C@H](C(=O)N3C[C@H](O)C[C@H]3C(=O)NCc3ccc(-c4scnc4C)cc3)C(C)(C)C)nc3c2CCN(c2cccc4cccc(Cl)c24)C3)C[C@@H]1CC#N [LC-2, (2S,4R)-1-((S)-2-(3-(3-((S)-2-(((7-(8-chloronaphthalen-1-yl)-4-((S)-3-(cyanomethyl)-4-(2-fluoroacryloyl)piperazin-1-yl)-5,6,7,8-tetrahydropyrido[3,4-d]pyrimidin-2-yl)oxy)methyl)pyrrolidin-1-yl)propoxy)propanamido)-3,3-dimethylbutanoyl)-4-hydroxy-N-(4-(4-methylthiazol-5-yl)benzyl)pyrrolidine-2-carboxamide]",pErk,"pErk; NCI-H23, 2.5 μM LC-2, 6 and 24 hours",suppressed
same,pErk signaling,"pErk; NCI-H23, 24 hour dose response",dose-dependent decrease in pErk
same,total Erk levels,"pErk; NCI-H23, 24 hour dose response",elevated in a dose-dependent manner
same,induction of KRAS^G12C degradation,KRAS^G12C [1],induces KRAS^G12C
same,DC50,"KRAS^G12C [2]; MIA PaCa2, homozygous KRAS^G12C",320 ± 80 nM
same,Dmax,KRAS^G12C [2]; MIA PaCa-2,> 75%
same,duration of KRAS degradation,"KRAS^G12C [2]; MIA PaCa-2, 2.5 μM",sustained up to 72 hours
same,time to maximal KRAS degradation,"KRAS^G12C [2]; MIA PaCa-2, 2.5 μM, 6, 24, 48, 72 hours",≤ 24 h
same,"KRAS, two-way ANOVA significance vs DMSO","KRAS^G12C [2]; MIA PaCa-2, 2.5 μM, 6 hours",** (** p < 0.01)
same,"KRAS, two-way ANOVA significance vs DMSO","KRAS^G12C [2]; MIA PaCa-2, 2.5 μM, 24 hours",** (** p < 0.01)
